Results on one compound are retold here after patent US20250009895A1, “DRUG LOADING MONOMOLECULAR NANO POLYMER, PRODRUG, MICELLE, DRUG DELIVERY SYSTEM, PREPARATION METHOD, AND USE” (priority 2021, published 2025).

The subject of the data set is A549 lung cancer subcutaneous xenograft model. Briefly: Tumor drug accumulation test, Pt in tumor by ICP-MS. It is filed as in vivo, Bal b/c nude mice. The settings on record: tail vein injection, CPT 5 mg/kg and Pt 1.8 mg/kg. The protocol: The tumor model used in this example was A549 lung cancer subcutaneous xenograft model. Female Bal b/c nude mice at the age of 8 weeks were administrated with the drug formulation via tail vein injection at a dose of 200 microliters with CPT at 5 mg/kg and Pt at 1.8 mg/kg. Equivalent amounts of cisplatin and the self-assembled dual-drug nano-formulation cisplatin@PEG-PGlu(ss-CPT) served as controls. At different time points after the intravenous injection, the mice were dissected, and the tumor tissues were collected and fully dissolved in concentrated nitric acid. The Pt contents in the tumor tissues were measured using ICP-MS.

Regarding `N.N.[Cl][Pt][Cl]` [cisplatin], the “drug (Pt) concentration / enrichment in the tumor” value is given as “relatively low”.
